The source made the active and inactive calls. No cut-off for these calls is given here.
Key:
Rattus norvegicus [1] = assay: Antiallodynic activity in Wistar albino rat chronic constriction injury-induced neuropathic pain model assessed as attenuation of mechanical allodynia measured as paw withdrawal latency at 100 mg/kg, ip; format: functional; conditions: route intraperitoneal
Rattus norvegicus [2] = assay: Antiallodynic activity in Wistar albino rat chronic constriction injury-induced neuropathic pain model assessed as attenuation of cold allodynia after 1 to 2.5 hrs at 100 mg/kg, ip; format: functional, organism-based; set-up: dose 100 mg/kg
Rattus norvegicus [3] = assay: Antiallodynic activity in Wistar albino rat chronic constriction injury-induced neuropathic pain model assessed as reversal of spontaneous pain response measured as withdrawal duration at 100 mg/kg, ip; format: functional; conditions: route intraperitoneal
Rattus norvegicus [4] = assay: Antiallodynic activity in Wistar albino rat chronic constriction injury-induced neuropathic pain model assessed as attenuation of cold allodynia measured as paw withdrawal duration at 100 mg/kg, ip; format: functional; conditions: route intraperitoneal
Rattus norvegicus [5] = assay: Antihyperalgesic activity in Wistar albino rat chronic constriction injury-induced neuropathic pain model assessed as attenuation of mechanical pinkprick-induced hyperalgesia up to 2.5 at 100 mg/kg, ip; format: functional, organism-based; set-up: dose 100 mg/kg
Rattus norvegicus [6] = assay: Antiallodynic activity in Wistar albino rat chronic constriction injury-induced neuropathic pain model assessed as reversal of spontaneous pain response after 0.5 hrs at 100 mg/kg, ip; format: functional, organism-based; set-up: dose 100 mg/kg
Rattus norvegicus [7] = assay: Antiallodynic activity in Wistar albino rat chronic constriction injury-induced neuropathic pain model assessed as attenuation of mechanical allodynia at 100 mg/kg, ip; format: functional, organism-based; set-up: dose 100 mg/kg
Rattus norvegicus [8] = assay: Antiallodynic activity in Wistar albino rat chronic constriction injury-induced neuropathic pain model assessed as reversal of spontaneous pain response at 100 mg/kg, ip relative to gabapentin; format: functional; conditions: route intraperitoneal
Rattus norvegicus [9] = assay: Antihyperalgesic activity in Wistar albino rat chronic constriction injury-induced neuropathic pain model assessed as attenuation of mechanical pinkprick-induced hyperalgesia after 1.5 at 100 mg/kg, ip; format: functional, organism-based; set-up: dose 100 mg/kg
Rattus norvegicus [10] = assay: Antiallodynic activity in Wistar albino rat chronic constriction injury-induced neuropathic pain model assessed as attenuation of mechanical allodynia after 0.5 hrs at 100 mg/kg, ip; format: functional, organism-based; set-up: dose 100 mg/kg
Rattus norvegicus [11] = assay: Antiallodynic activity in Wistar albino rat chronic constriction injury-induced neuropathic pain model assessed as reversal of spontaneous pain response at 100 mg/kg, ip; format: functional, organism-based; set-up: dose 100 mg/kg
Rattus norvegicus [12] = assay: Antiallodynic activity in Wistar albino rat chronic constriction injury-induced neuropathic pain model assessed as reversal of spontaneous pain response up to 2 hrs at 100 mg/kg, ip; format: functional, organism-based; set-up: dose 100 mg/kg
Rattus norvegicus [13] = assay: Antiallodynic activity in Wistar albino rat chronic constriction injury-induced neuropathic pain model assessed as attenuation of cold allodynia after 0.5 to 1 hr at 100 mg/kg, ip; format: functional, organism-based; set-up: dose 100 mg/kg
Rattus norvegicus [14] = assay: Antiallodynic activity in Wistar albino rat chronic constriction injury-induced neuropathic pain model assessed as reversal of spontaneous pain response up to 1 hr at 100 mg/kg, ip; format: functional, organism-based; set-up: dose 100 mg/kg
Rattus norvegicus [15] = assay: Antiallodynic activity in Wistar albino rat chronic constriction injury-induced neuropathic pain model assessed as reversal of spontaneous pain response after 1 hrs at 100 mg/kg, ip; format: functional, organism-based; set-up: dose 100 mg/kg
Rattus norvegicus [16] = assay: Antiallodynic activity in Wistar albino rat chronic constriction injury-induced neuropathic pain model assessed as attenuation of cold allodynia at 100 mg/kg, ip relative to carbamazepine and lamotrigine; format: functional; conditions: route intraperitoneal
Rattus norvegicus [17] = assay: Antiallodynic activity in Wistar albino rat chronic constriction injury-induced neuropathic pain model assessed as attenuation of cold allodynia at 100 mg/kg, ip; format: functional, organism-based; set-up: dose 100 mg/kg
Rattus norvegicus [18] = assay: Antiallodynic activity in Wistar albino rat chronic constriction injury-induced neuropathic pain model assessed as attenuation of mechanical allodynia after 1.5 hrs at 100 mg/kg, ip; format: functional, organism-based; set-up: dose 100 mg/kg
Rattus norvegicus [19] = assay: Antihyperalgesic activity in Wistar albino rat chronic constriction injury-induced neuropathic pain model assessed as attenuation of mechanical pinkprick-induced hyperalgesia after 0.5 to 1.5 at 100 mg/kg, ip; format: functional, organism-based; set-up: dose 100 mg/kg
Rattus norvegicus [20] = assay: Antihyperalgesic activity in Wistar albino rat chronic constriction injury-induced neuropathic pain model assessed as attenuation of mechanical pinkprick-induced hyperalgesia after 0.5 to 1 at 100 mg/kg, ip; format: functional, organism-based; set-up: dose 100 mg/kg

Structure (SMILES)	Time (Rattus norvegicus [1]) [h]	Time (Rattus norvegicus [3]) [h]	Time (Rattus norvegicus [4]) [h]	Activity (Rattus norvegicus [6])	Activity (Rattus norvegicus [7])	Activity (Rattus norvegicus [9])	Activity (Rattus norvegicus [10])	Activity (Rattus norvegicus [11])	Activity (Rattus norvegicus [17])	other results
NCC1(CC(=O)O)CCCCC1 [GABAPENTIN]	2.5	1								Activity (Rattus norvegicus [2]): Active
COc1ccc(/C=N/NC(=O)c2ccc(-c3ccc([N+](=O)[O-])cc3)o2)cc1		2.5	2.5	Active	inactive					Activity (Rattus norvegicus [5]): Active; fold change (FC) (Rattus norvegicus [8]): 5
C/C(=N\NC(=O)c1ccc(-c2ccc([N+](=O)[O-])cc2)o1)c1ccc(Br)cc1	2.5		2.5			inactive	Active	inactive		
Nc1nnc(-c2cccc(Cl)c2Cl)c(N)n1							Active			Activity (Rattus norvegicus [12]): Active
NC(=O)N1c2ccccc2C=Cc2ccccc21 [CARBAMAZEPINE]	2.5									Activity (Rattus norvegicus [13]): Active; Activity (Rattus norvegicus [14]): Active
O=C(N/N=C/c1ccc(Br)cc1)c1ccc(-c2ccc([N+](=O)[O-])cc2)o1		2.5	2.5		inactive					Activity (Rattus norvegicus [5]): Active; Activity (Rattus norvegicus [15]): Active; fold change (FC) (Rattus norvegicus [16]): 6
C/C(=N\NC(=O)c1ccc(-c2ccc([N+](=O)[O-])cc2)o1)c1ccc(F)cc1					inactive	inactive		inactive	inactive	
COc1cc(/C=N/NC(=O)c2ccc(-c3ccc([N+](=O)[O-])cc3)o2)ccc1O	2.5	2.5		Active		inactive			inactive	Activity (Rattus norvegicus [18]): Active
Cc1ccc(/C=N/NC(=O)c2ccc(-c3ccc([N+](=O)[O-])cc3)o2)cc1					inactive	Active		inactive	inactive	
O=C(N/N=C/c1ccc([N+](=O)[O-])o1)c1ccc(-c2ccc([N+](=O)[O-])cc2)o1	2.5	2.5	2.5	Active		Active				
C/C(=N\NC(=O)c1ccc(-c2ccc([N+](=O)[O-])cc2)o1)c1ccc(C)cc1	2.5						Active	inactive	inactive	Activity (Rattus norvegicus [19]): Active
O=C(N/N=C/c1ccccc1)c1ccc(-c2ccc([N+](=O)[O-])cc2)o1	2	2.5	2.5	Active		inactive				
C/C(=N\NC(=O)c1ccc(-c2ccc([N+](=O)[O-])cc2)o1)c1ccccc1	2.5	2.5	2.5	Active			Active			Activity (Rattus norvegicus [20]): Active
